The source of these data is patent US5145781A (priority 1989, dated 1992).

In one series the test system is 7 week-old dd mice. Briefly: Acute toxicity test, oral administration to mice. Conditions: orally administered. In kind it is in vivo.
The test system of the next series is alpha-glucosidase. The experiment in a line: Hydrolysis by alpha-glucosidase from pig liver. In kind it is biochemical. Conditions: alpha-glucosidase extracted from pig liver, partially purified.
Series [1] is described as follows: Water-solubility, light-resistance and stability (general statements). In kind it is physicochemical.
The conditions of series [2]: cited from earlier work.

With `C[C@@H]1O[C@@H](OC[C@H]2O[C@@H](Oc3c(-c4ccc(O)c(O)c4)oc4cc(O)cc(O)c4c3=O)[C@H](O)[C@@H](O)[C@@H]2O[C@H]2O[C@H](CO)[C@@H](O)[C@H](O)[C@H]2O)[C@H](O)[C@H](O)[C@H]1O` [Example A-2, alpha-glucosyl rutin], in the series on 7 week-old dd mice, the “acute toxicity, in words” value is reported as “extremely low”. The mortality entry with 7 week-old dd mice (up to 5g, higher dose was difficult) is “the same result”. Moreover, in the series on alpha-glucosidase, the hydrolysis by alpha-glucosidase result was “hydrolyzed the alphaglucosyl rutin into rutin and D-glucose”.
Regarding `C[C@@H]1O[C@@H](OC[C@H]2O[C@@H](Oc3c(-c4ccc(O)c(O)c4)oc4cc(O)cc(O)c4c3=O)[C@H](O)[C@@H](O)[C@@H]2O)[C@H](O)[C@H](O)[C@H]1O` [rutin], the “stability in an alkaline solution” value in series [1] was “tends to readily decompose”. Besides, the solubility in water entry in series [2] (ambient temperature) is recorded as “about 0.01 w/v %”. The “solubility in water, in words” value in series [2] is reported as “hardly soluble in water”.
